# Earlier results as cited in patent EP4778980A1, “SILICONE MATERIAL, SILICONE TUBE, IMPLANT AND PREPARATION METHOD THEREFOR, ROD CORE, PERFORATED IMPLANT AND PREPARATION METHOD THEREFOR AND USE THEREOF” (SHENYANG XINGHUA PHARMACEUTICAL TECHNOLOGY CO., LTD, priority 2023, dated 2025).
smiles,measurement,value
Cc1nc2n(c(=O)c1CCN1CCC(c3noc4cc(F)ccc34)CC1)CCCC2O (stereo not shown) [Paliperidone],solubility,"Paliperidone (98% purity) Mw = 426.48, 0.05 mg/ml"
